From ChEMBL document CHEMBL1201862, “PubChem BioAssay data set” (2004)
Calls of active or inactive are those of the source. For most assays here, no stated cut-off is given here; in the data, actives have a measured AC50 and inactives only a lower limit.

Tests used:
[1] = PAX2 cell-based inhibition, dose response, selectivity assay for PAX8 inhibitor project, plate reader, dry powder samples (AID 743048); format: functional;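 further: HEK293 cells carrying a WT1 promoter luciferase reporter driven by expressed Pax2; potency is for inhibition of Pax2 driven reporter signal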
[2] = LGR2 antagonists, dose response, cell-based, HEK293, CRE-luciferase reporter, cherry pick, set 2 (AID 743343); format: functional;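 further: transfected cells were stimulated with diluted bursicon conditioned medium after compound addition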
[3] = target: Paired box protein Pax-8 (Homo sapiens, UniProt Q06710); assay: inhibitors of PAX8-driven TPO luciferase reporter, dose response, RMG-I cells, cherry-pick (AID 687027); format: functional, cell-based;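 further: luciferase reporter driven by Pax8 target thyroperoxidase promoter measured by SteadyGlo luminescence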
[4] = inhibitors of CMV-promoter luciferase reporter, dose response, counter-screen for Pax8 inhibitor project, cell-based, HEK293, luminescence, dry powder (AID 743020); format: functional
[5] = NIH:OVCAR-3 ovarian cancer cell cytotoxicity, dose response, PAX8 inhibitor project, plate reader, dry powder samples (AID 743044); format: functional, cell-based
[6] = cytotoxicity in OVCAR8 ovarian cancer cells, dose response, PAX8 project, cell-based, plate reader, dry powder samples (AID 743197); format: functional; conditions: OVCAR-8
[7] = IOSE-T80 ovarian epithelial cell cytotoxicity, dose response, cytotoxicity control for PAX8 inhibitor project, plate reader, dry powder samples (AID 743045); format: functional, cell-based
[8] = cytotoxicity in COV434 cells, dose response, cytotoxicity control for PAX8 inhibitor project, cell-based, plate reader, dry powder, SA7 (AID 743145); format: functional
[9] = A549 cell cytotoxicity, dose response, cytotoxicity control, plate reader, cherry-pick, antagonist series (AID 743412); format: functional, cell-based
[10] = HepG2 cell cytotoxicity, dose response, cytotoxicity control, plate reader, cherry-pick, antagonist series (AID 743416); format: functional, cell-based
[11] = IGROV1 ovarian cancer cell cytotoxicity, dose response, PAX8 inhibitor project, plate reader, dry powder samples (AID 743043); format: functional, cell-based; conditions: IGROV-1
[12] = HEK293 cell cytotoxicity, dose response, cytotoxicity control, plate reader, cherry-picked samples (AID 743446); format: functional, cell-based
[13] = MC4R antagonists, dose response, counter-screen for LGR2 antagonist project, cell-based, plate reader, cherry pick (AID 743444); format: functional;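 further: transfected HEK 293 cells stimulated with alpha-MSH peptide; potency of inhibitors of the alpha-MSH evoked signal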
[14] = PAX5 activity inhibitors, dose response, selectivity assay for PAX8 inhibitor project, cell-based, plate reader, dry powder samples (AID 743047); format: functional;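 further: HEK293 cells carrying a Pax5 driven CD19 promoter luciferase reporter; potency of inhibitors that lower reporter luminescence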
[15] = cytotoxicity in OV-90 ovarian cancer cells, dose response, PAX8 inhibitor project, cell-based, plate reader, dry powder, SA8 (AID 743149); format: functional
[16] = cytotoxicity dependent on PAX8, dose response, cell-based, plate reader, dry powder (AID 743049); format: functional
[17] = cytotoxicity in COV362 ovarian cancer cells, dose response, cytotoxicity control for PAX8 inhibitor project, cell-based, plate reader, dry powder, SA12 (AID 743144); format: functional
[18] = Late stage results for the probe development effort to identify inhibitors of Plasmodium falciparum gametocytes: Luminescence-based cell-based high throughput dose response assay to identify inhibitors of viability of late stage Plasmodium falciparum gametocytes.; format: functional
[19] = HEK293T cell cytotoxicity, dose response, cytotoxicity control, plate reader, dry powder, set 10 (AID 743315); format: functional, cell-based; conditions: HEK293
[20] = C. neoformans growth inhibition with sorbitol, dose response, mechanism study for C. neoformans lysis project, alamar blue, dry powder, set 3 (AID 743304); format: functional, organism-based
[21] = fibronectin fibrillogenesis inhibitors in fibroblasts, dose response, AH1F cells, Alexa488-fibronectin fluorescence, cherry-pick, set 2 (AID 1117283); format: functional, cell-based
[22] = HepG2 cell cytotoxicity, dose response, cytotoxicity control, cherry-picked samples (AID 1159577); format: functional, cell-based
[23] = A549 cell cytotoxicity, dose response, cytotoxicity control, cherry-picks, 26 µM top dose (AID 1053119); format: functional, cell-based
[24] = P. falciparum Dd2 growth inhibitors, dose response, SYBR Green, cherry-picked samples (AID 1159567); format: functional, cell-based
[25] = P. falciparum Dd2 growth inhibitors, dose response, SYBR Green, dry powder samples, set 9 (AID 1159568); format: functional, cell-based

Chain of Paired box protein Pax-8 (Q06710 whole entry): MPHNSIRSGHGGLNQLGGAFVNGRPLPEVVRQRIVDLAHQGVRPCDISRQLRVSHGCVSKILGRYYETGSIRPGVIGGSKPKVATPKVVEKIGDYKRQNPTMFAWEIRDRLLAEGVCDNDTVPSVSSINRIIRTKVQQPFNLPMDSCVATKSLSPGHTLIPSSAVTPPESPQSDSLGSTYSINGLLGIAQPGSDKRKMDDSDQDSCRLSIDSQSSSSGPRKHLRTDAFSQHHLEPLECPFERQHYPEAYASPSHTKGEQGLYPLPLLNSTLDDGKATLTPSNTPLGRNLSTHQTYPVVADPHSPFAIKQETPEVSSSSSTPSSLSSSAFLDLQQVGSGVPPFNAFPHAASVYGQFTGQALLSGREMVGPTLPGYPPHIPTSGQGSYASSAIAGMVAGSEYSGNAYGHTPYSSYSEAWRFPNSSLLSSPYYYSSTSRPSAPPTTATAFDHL

With N#C[C@@H]1[C@H](c2ccc(C#Cc3ccc(F)cc3)cc2)[C@@H](CO)N1C(=O)Nc1ccc(F)cc1 the AC50 [1] was 12.9 µM (active), the AC50 [2] was 34.4 µM (active) and the AC50 [3] was 4.38 µM (active). The AC50 [4] was 5.19 µM (active), the AC50 [5] was 30.9 µM (active) and the AC50 [6] was 22.2 µM (active). For the same molecule, the AC50 [7] was 24 µM (active), the AC50 [8] was > 70 µM (inactive) and the AC50 [9] was 14.3 µM (active). For the same molecule, the AC50 [10] was 16.8 µM (active), the AC50 [11] was 23.1 µM (active) and the AC50 [12] was 27.9 µM (active). The AC50 [13] was 35.9 µM (active), the AC50 [14] was 15.8 µM (active) and the AC50 [15] was > 70 µM (inactive). For the same molecule, the AC50 [16] was 33.8 µM (active) and the AC50 [17] was 44.7 µM (active).
With O=C(Nc1nncs1)c1cc(-c2ccccc2)nn1-c1ccccc1 the IC50 [18] was > 37.2 µM (inactive).
In the case of CSc1nc2ccccc2n1CCOc1cc(C)ccc1C(C)C, the AC50 [19] is reported as > 52 µM (inactive) and the AC50 [20] is reported as 41.6 µM (active).
In the case of C[C@@H]1CN([C@@H](C)CO)C(=O)c2cccc(NC(=O)Nc3ccc(C(F)(F)F)cc3)c2O[C@H]1CN(C)C(=O)Nc1cccc2ccccc12, the AC50 [21] is reported as > 70 µM (inactive), the AC50 [22] is reported as > 39 µM (inactive) and the AC50 [23] is reported as > 52 µM (inactive). The AC50 [24] was 7.88 µM (active).
With CCCNC(=O)N1[C@H](C#N)[C@@H](c2ccccc2-c2cccc(C)c2)[C@@H]1CO the AC50 [25] was 10.2 µM (active).
